This note sets out measurements from patent EP2545917B1, “NOVEL EP4 AGONIST” (Kaken Pharmaceutical Co., Ltd., priority 2010, dated 2011).

Data set [1] has as its system intraocular pressure. Nature of the data set: Effect on intraocular pressure in rabbits. It counts as in vivo, Japanese white rabbits. As to conditions: 0.01 w/v% solution, 50 µL/eye. How it is done:
Japanese white rabbits (male, 10 weeks old, BIOTEC Co., Ltd.) were purchased, acclimated for 1 week and used for the study. Compound F solution (0.01 w/v%) was instilled once into the cornea of both eyes at a volume of 50 µL/eye with a micropipette. The intraocular pressure of the right eye was measured and the local irritative effect on the eye was evaluated using the left eye. After surface anesthesia with oxybupranol (Benoxil 0.4% instillation solution), the intraocular pressure was measured before ocular instillation ) and 1, 2, 3, 4, 6 and 8 hr after the instillation using a pneumatonometer (Alcon Ltd.). In addition, the local irritative effect on the eye was evaluated by scoring conjunctival congestion, conjunctival edema, cornea opacity, iris congestion, excretion and eye closure performance. For the evaluation, phosphate buffer was used for the solvent control group, and isopropyl unoprostone (Rescula eye drops, Santen Pharmaceutical Co., Ltd.) was used for comparison. Six animals were used for each group and the results were expressed as average.

Data set [2] deals with IL-2. The data set can be described thus: Suppressive effect on cytokine production, CD4 positive T cells stimulated with anti-CD3 and anti-CD28 antibody, ELISA. Format: cell-based. To be noted: human CD4 positive T cells, anti-CD3/anti-CD28, 24 hr; geometric mean of three volunteers. As for the experimental part:
(§1) Blood was collected from 3 healthy volunteers, and CD4 positive T cells were prepared. […] In both cases, the test compound was added 30 min before stimulation.
(In general: ELISA stands for enzyme-linked immunosorbent assay.)

Data set [3] concerns TNF-α. The data set is described as above. Format: cell-based. As to conditions: human CD4 positive T cells, anti-CD3/anti-CD28, 24 hr; geometric mean of three volunteers. How it is done:
as §1

Data set [4] has as its system dextran sodium sulfate-induced colitis. Nature of the data set: Prophylactic effect on dextran sodium sulfate-induced colitis in rats. Format: in vivo. As to conditions: SD rats, 5.5 w/v% DSS, oral 1 mg/kg and 3 mg/kg once a day. How it is done:
Prophylactic effect of compound F on colitis was also studied in rats. Male SD rats, 7 weeks old, body weight around 210 g - 240 g (Charles River) were purchased, acclimated for 1 week and used for the study. Except the normal group, the rats were allowed to freely drink a DSS (MP Biochemicals, M.W. 36,000-50,000, Lot No. 4556J) solution prepared to 5.5 w/v% for 8 days to induce colitis. Compound F at doses of 0.3, 1 and 3 mg/kg was orally administered once a day, daily, from one day before the start day of DSS drinking to one day before autopsy (day 7). To the control group was orally administered a solvent (1 vol% ethanol solution) at 5 mL/kg.
On day 8 from the start of DSS drinking, 1.25 w/v% Evans blue solution was administered at 0.2 mL/100 g from the tail vein. After 30 min, the rats were subjected to laparotomy under ether anesthesia and exsanguinated to death. Thereafter, the large intestine was dissected from just below the cecum to the anus, and the length was measured with a scale. […] The next day, the dry weight was measured, formamide (2 mL) was added, the dye was extracted at 50°C overnight, and the level thereof was measured at 620 nm. A standard curve was prepared using an Evans blue standard solution, and the amount (mg) of Evans blue in 1 g of the colonic tissue was calculated to estimate degree of colonic tissue injury. […]

Data set [5] has the same test system. Nature of the data set: Therapeutic effect on remission/relapse model of dextran sodium sulfate-induced colitis in mice. It counts as in vivo, BALB/c mice. The text has this:
Next, therapeutic effect of compound F on colitis was studied in a chronic model. Female BALB/c mice, 6 weeks old, body weight about 20 g (Japan SLC) were purchased, acclimated for 1 week and used for the study. The mice were divided into a colitis induction group and a normal group. The colitis induction group was allowed to freely drink a 2.6 w/v% DSS (MP Biochemicals, M.W. 36,000- 50,000, Lot No. 4556J) solution to induce colitis. On day 8 when the stool score (defined in Example 23) of the colitis induction group reached about 4.5, the mice were subdivided into a control group, a compound F 1 mg/kg administration group and a salazosulfapyridine (SIGMA, Lot No. 085K1930, hereinafter to be abbreviated as SASP) 100 mg/kg administration group. Then the mice were allowed to freely drink distilled water instead of DSS solution for 9 days (remission period). After the grouping, the stool score was evaluated every 3 - 4 days. When the score of the control group reached about 1, the mice were again allowed to drink the DSS solution to cause a relapse (relapse period). The periods of remission and relapse were taken as 1 cycle and the cycle was repeated 5 times. As for the 5th cycle, however, only the remission period was performed.
Compound F at a dose of 1 mg/kg and SASP at a dose of 100 mg/kg were orally administered once a day, daily, for 50 days from the initial remission period (day 8 from the start of 2.6 w/v% DSS drinking) to the fifth remission period (day 57 from the start of 2.6 w/v% DSS drinking). To the control group was orally administered a solvent (1 vol% ethanol solution) at 10 mL/kg. If a mouse had score 0 of both stool consistency score and occult blood score on the last day of each remission period, the mouse was regarded as "in remission". The remission ratio (%) was calculated as a ratio of mice in remission in each group. Eight to 10 mice were used for each group and the results are shown in average value.

A short description of data set [6]: In vitro metabolic stability: β-oxidation reaction in rat liver mitochondria fraction. It counts as in vitro ADME. To be noted: parent compound after NADPH-independent β-oxidation reaction, 37°C, 30 min, tested as isomer mixtures, average ± SD of 3 experiments. How it is done:
A mixture of the compound F and compound J of the present invention described in Table 1 (F:J = 52:41, synthesized in Example 14), and a mixture of compounds wherein the tetrazole groups at C-1 of compound F and compound J are respectively substituted by carboxylic acid (referred to as carboxylate form, F:J = 54:34, synthesized in Example 15) were tested.
First, a mitochondria fraction was prepared from the rat liver according to the following Reference A. Then, in reference to the method of […] et al. described in the following References B and C, an NADPH-independent β oxidation reaction was studied. The reaction was carried out at 37°C for 30 min, and stopped with a methanol solution containing a suitable internal standard substance. Each compound was quantified by the internal standard method using a high performance liquid chromatography mass spectrometry apparatus (LC-MS/MS). The compound residual ratio after metabolic reaction of compounds F, J and each carboxylate form thereof in rat mitochondria fraction is shown in the following Table 2 in average ± standard deviation of 3 experiments. Table 2 Residual Ratio of Parent Compound after β-Oxidation Reaction

The mark [7] stands for this setting: mice, oral once a day, Compound F 1 mg/kg, SASP 100 mg/kg.

The IC50 is the midpoint of a concentration-inhibition curve. A high value points to weaker potency in that assay.

Each structure is given as a SMILES string.

For the compound `Cc1cccc([C@@H](C)[C@H](O)/C=C/[C@@H]2[C@@H]3[C@H](C[C@H]2O)O/C(=C\CCCc2nnn[nH]2)C3(F)F)c1` [Compound F, 4-[(Z)-(1S,5R,6R,7R)-6-[(1E,3R,4R)-3-hydroxy-4-(m-tolyl)-1-pentenyl]-7-hydroxy-2-oxa-4,4-difluoro-bicyclo[3.3.0]octan-3-ylidene]-1-(tetrazol-5-yl)butane], the “decrease in intraocular pressure” value in data set [1] (1 hr after the instillation) is 6.9 mmHg. The “decrease in intraocular pressure” value in data set [1] (2 hr after the instillation) was determined as 9.3 mmHg. Also, the “decrease in intraocular pressure” value in data set [1] (6 hr after the instillation) was 6.6 mmHg. In data set [2], the half-inhibitory concentration (IC50) is 0.509 nM. In data set [3], this compound gave an IC50 of 1.25 nM. In addition, in data set [4], the “effect on stool score, colonic tissue injury and shortening of the large intestine” value was “a suppressive tendency or significant suppressive effect on these events”. For the same compound, the “Remission Ratio Average” value in data set [5] (average of 5 remission periods, Compound F 1 mg/kg, SASP 100 mg/kg) was found to be 66.0%. For the same compound, the “remission ratio in any remission period” value in data set [5] (mice, oral 1 mg/kg once a day) is “not less than 60%”. Moreover, the “effect on stool score in remission and relapse periods” value in data set [5] (mice, oral once a day for 50 days, compound F 1 mg/kg, SASP 100 mg/kg) is “decreased the stool score early in the remission period, and suppressed an increase in the score in the relapse period”. For the same compound, in data set [5] (setting [7]), the “Remission Ratio Cycle 1” value was 60.0%, the “Remission Ratio Cycle 2” value is given as 80.0%, the “Remission Ratio Cycle 3” value was determined as 70.0% and the “Remission Ratio Cycle 4” value stood at 60.0%. Also, the “Remission Ratio Cycle 5” value in data set [5] (setting [7]) is 60.0%. In data set [6], the Residual ratio is reported as 91.6±6.8%.
